Data: ChEMBL document CHEMBL1201862, “PubChem BioAssay data set” (2004)
The source made the active and inactive calls.

Assays:
[1] = target: T1, Dual specificity protein phosphatase 3 (Homo sapiens, UniProt P51452); experiment: SAR VHR1 absorbance Assay for In Vitro dose response studies. [Related pubchem assays (depositor defined):AID1654, AID1661, AID1878, AID1992, AID2004]
[2] = target: T1, Dual specificity protein phosphatase 3; experiment: SAR VHR1 Fluorescent Assay for In Vitro dose response studies. [Related pubchem assays (depositor defined):AID1654, AID1661, AID1878, AID1992, AID2004, AID2070, AID2085]; assay type: functional
[3] = target: T2, Tyrosine-protein phosphatase non-receptor type 7 (Homo sapiens, UniProt P35236); experiment: redox-active compounds inhibiting HePTP phosphatase – biochemical, fluorescence, mechanism study (AID 2068); assay type: functional
T2 sequence (P35236 whole entry): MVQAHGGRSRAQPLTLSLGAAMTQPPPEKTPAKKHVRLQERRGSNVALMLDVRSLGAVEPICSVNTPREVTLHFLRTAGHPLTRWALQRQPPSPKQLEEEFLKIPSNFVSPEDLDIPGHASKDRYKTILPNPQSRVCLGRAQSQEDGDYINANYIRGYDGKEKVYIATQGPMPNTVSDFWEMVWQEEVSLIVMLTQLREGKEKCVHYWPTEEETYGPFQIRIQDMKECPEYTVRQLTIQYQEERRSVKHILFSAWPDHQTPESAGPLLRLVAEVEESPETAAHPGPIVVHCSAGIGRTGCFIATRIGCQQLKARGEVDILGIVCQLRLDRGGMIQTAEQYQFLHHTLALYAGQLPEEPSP

[4] = target: Dual specificity protein phosphatase 6 (Rattus norvegicus, UniProt Q64346); assay type: functional;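 note: confirmatory in vitro dose-response testing of MKP-3 inhibition; recombinant His-tagged MKP-3 made in E. coli BL21 with OMFP substrate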
Beta-lactamase [5] = target: Beta-lactamase (Pseudomonas aeruginosa, UniProt Q79MP6);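 note: biochemical dose-response test of metallo-beta-lactamase enzyme inhibition, read out by epi-absorbance; purified recombinant IMP-1 metallo-beta-lactamase with nitrocefin as substrate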
Chain of Beta-lactamase (Pseudomonas aeruginosa, UniProt Q79MP6) (Q79MP6 whole entry): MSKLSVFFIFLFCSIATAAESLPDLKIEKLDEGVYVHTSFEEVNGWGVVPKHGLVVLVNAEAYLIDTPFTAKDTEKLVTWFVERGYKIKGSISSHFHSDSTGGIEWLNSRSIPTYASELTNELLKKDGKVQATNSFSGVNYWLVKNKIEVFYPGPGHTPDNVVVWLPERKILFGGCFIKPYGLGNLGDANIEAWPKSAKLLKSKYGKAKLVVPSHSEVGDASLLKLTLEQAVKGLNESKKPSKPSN

Beta-lactamase [6] = target: Beta-lactamase (Salmonella choleraesuis (strain SC-B67), UniProt Q5J463)
Chain of Beta-lactamase (Salmonella choleraesuis (strain SC-B67), UniProt Q5J463) (Q5J463 whole entry): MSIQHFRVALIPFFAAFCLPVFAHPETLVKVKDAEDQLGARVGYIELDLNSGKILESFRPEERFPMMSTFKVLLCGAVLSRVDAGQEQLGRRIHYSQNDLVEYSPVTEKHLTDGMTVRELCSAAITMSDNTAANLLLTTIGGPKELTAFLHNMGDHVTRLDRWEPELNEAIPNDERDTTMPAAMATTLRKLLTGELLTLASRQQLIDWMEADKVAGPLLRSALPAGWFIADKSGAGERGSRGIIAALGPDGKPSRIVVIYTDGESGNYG

ORF 73 = ORF 73 (Human herpesvirus 8, UniProt O40947); experiment: KSHV LANA DNA-binding disruption – biochemical, fluorescence polarization, cherry-picked samples, dose response (AID 504725); set-up: species or system Human gammaherpesvirus 8;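 note: fluorescence polarization of a labeled DNA duplex reporting LANA DNA binding; potency is for inhibitors that block LANA binding to the DNA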
Keap1/Nrf2 = Keap1/Nrf2 (Homo sapiens, UniProt Q14145); experiment: disruptors of Keap1 binding to Nrf2 peptide – biochemical, fluorescence polarization, cherry-picked samples, dose response (AID 588683)
Chain of Keap1/Nrf2 (Q16236 whole entry): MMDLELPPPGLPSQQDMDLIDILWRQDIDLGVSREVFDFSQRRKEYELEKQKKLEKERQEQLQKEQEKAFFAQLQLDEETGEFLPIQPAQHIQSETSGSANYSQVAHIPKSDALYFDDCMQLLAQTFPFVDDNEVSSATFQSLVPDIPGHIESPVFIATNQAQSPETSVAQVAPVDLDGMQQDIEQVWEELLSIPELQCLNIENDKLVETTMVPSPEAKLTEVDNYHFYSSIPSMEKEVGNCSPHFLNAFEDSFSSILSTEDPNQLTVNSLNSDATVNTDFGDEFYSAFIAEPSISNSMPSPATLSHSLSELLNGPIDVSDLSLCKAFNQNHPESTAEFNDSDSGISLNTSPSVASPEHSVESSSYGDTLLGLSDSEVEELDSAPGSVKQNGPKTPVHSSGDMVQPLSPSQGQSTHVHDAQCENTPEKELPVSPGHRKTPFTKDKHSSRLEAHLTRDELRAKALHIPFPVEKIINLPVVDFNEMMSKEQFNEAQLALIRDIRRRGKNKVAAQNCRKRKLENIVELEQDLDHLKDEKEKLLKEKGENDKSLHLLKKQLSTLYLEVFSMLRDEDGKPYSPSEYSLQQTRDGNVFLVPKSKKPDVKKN
Chain of Keap1/Nrf2 (Q14145 whole entry): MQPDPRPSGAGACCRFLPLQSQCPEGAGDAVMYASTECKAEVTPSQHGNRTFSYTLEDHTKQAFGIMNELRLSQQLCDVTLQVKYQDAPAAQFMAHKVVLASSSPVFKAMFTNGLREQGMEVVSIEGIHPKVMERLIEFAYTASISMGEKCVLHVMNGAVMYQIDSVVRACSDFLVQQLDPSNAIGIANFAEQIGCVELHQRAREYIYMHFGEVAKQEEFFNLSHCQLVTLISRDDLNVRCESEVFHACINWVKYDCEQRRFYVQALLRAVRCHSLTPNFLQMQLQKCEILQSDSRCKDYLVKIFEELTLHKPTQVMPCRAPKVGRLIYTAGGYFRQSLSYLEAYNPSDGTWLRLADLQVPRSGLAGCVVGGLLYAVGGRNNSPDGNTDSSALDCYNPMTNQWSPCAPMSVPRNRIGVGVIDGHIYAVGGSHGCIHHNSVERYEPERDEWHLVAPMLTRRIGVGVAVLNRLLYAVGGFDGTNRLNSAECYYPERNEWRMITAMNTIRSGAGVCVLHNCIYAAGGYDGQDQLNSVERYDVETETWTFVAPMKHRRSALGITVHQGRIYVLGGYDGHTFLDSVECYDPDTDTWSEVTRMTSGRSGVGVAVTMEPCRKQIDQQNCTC

[7] = target: Bifunctional protein GlmU (Mycobacterium tuberculosis, UniProt P9WMN3); experiment: Inhibitors of Mycobacterial Glucosamine-1-phosphate acetyl transferase (GlmU). Secondary screen.; set-up: species or system Mycobacterium tuberculosis H37Rv
Chain of Bifunctional protein GlmU (P9WMN3 whole entry): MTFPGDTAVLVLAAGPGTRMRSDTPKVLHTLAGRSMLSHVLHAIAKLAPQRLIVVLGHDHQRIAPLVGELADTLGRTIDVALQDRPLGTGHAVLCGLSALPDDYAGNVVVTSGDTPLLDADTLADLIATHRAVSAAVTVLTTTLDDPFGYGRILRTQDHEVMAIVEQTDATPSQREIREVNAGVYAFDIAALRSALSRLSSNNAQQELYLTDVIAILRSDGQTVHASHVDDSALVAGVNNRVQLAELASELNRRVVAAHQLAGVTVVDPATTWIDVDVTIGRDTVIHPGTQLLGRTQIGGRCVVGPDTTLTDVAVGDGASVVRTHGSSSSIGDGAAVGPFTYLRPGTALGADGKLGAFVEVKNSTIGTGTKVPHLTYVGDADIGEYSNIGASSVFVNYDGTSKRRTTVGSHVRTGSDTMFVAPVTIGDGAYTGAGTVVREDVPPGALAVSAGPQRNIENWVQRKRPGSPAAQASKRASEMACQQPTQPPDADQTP

[8] = target: DNA dC->dU-editing enzyme APOBEC-3A (Homo sapiens, UniProt P31941); experiment: A3A deaminase inhibition for selectivity – biochemical, dose response (AID 504722); assay type: functional
Chain of DNA dC->dU-editing enzyme APOBEC-3A (P31941 whole entry): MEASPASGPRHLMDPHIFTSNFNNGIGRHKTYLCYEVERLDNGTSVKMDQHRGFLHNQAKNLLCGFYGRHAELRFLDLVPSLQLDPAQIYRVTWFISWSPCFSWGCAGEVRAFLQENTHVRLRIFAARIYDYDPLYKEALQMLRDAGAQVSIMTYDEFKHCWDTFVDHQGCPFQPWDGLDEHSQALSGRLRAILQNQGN

[9] = target: DNA dC->dU-editing enzyme APOBEC-3G (Homo sapiens, UniProt Q9HC16); experiment: Dose Response confirmation of small molecule APOBEC3G DNA Deaminase Inhibitors via a fluorescence-based single-stranded DNA deaminase assay. [Related pubchem assays (depositor defined):AID493012, AID493028]; assay type: functional
Chain of DNA dC->dU-editing enzyme APOBEC-3G (Q9HC16 whole entry): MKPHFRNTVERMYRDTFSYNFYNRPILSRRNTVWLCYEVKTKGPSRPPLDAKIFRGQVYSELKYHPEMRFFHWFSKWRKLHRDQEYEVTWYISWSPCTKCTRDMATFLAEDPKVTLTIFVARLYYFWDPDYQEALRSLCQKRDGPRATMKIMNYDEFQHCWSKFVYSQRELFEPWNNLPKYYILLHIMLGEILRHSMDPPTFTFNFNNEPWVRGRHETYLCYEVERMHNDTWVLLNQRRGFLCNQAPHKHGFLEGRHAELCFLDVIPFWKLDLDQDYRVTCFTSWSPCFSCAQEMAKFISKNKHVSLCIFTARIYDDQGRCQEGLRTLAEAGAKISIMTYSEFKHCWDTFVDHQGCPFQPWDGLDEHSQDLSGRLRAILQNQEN

[10] = target: T3, Apoptotic protease-activating factor 1 (Homo sapiens, UniProt O14727); experiment: activation of Apaf-1 mediated apoptosis – fluorescent, uHTS hits, dose response (AID 588554); assay type: functional
T3 sequence (O14727 whole entry): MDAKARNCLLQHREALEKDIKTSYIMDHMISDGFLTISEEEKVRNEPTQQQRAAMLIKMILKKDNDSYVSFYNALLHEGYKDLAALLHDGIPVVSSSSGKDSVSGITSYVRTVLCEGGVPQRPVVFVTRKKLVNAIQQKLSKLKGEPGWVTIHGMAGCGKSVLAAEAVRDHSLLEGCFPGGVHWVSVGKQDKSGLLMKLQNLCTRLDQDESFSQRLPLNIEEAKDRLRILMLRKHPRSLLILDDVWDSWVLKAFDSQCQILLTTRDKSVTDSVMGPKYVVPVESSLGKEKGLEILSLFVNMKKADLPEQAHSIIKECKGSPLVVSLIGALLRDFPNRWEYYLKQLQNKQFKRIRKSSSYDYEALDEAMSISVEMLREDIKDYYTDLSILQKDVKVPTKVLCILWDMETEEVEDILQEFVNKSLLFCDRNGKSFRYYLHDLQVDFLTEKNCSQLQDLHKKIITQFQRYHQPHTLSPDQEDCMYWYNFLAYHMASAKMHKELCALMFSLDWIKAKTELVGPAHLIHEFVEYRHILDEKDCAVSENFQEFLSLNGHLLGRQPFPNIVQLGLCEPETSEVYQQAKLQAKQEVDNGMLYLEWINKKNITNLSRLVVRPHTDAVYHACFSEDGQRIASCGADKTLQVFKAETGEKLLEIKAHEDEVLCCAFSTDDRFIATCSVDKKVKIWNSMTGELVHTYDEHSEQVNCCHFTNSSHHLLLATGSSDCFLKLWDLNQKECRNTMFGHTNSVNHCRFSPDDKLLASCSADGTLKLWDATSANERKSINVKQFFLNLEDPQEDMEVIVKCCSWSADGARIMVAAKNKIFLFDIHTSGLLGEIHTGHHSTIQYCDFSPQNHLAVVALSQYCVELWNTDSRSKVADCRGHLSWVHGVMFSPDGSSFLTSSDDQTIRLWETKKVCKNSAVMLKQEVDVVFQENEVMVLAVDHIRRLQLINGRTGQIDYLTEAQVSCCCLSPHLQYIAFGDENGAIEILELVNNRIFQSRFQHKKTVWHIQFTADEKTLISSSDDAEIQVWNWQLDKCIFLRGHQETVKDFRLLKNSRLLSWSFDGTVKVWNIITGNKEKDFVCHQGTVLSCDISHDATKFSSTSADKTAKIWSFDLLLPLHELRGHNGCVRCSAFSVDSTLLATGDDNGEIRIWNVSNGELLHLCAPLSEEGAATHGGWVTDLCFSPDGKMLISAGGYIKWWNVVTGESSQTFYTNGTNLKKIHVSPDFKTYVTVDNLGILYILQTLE

[11] = target: T4, Carboxy-terminal domain RNA polymerase II polypeptide A small phosphatase 1 (Homo sapiens, UniProt Q9GZU7); experiment: CTDSP1 inhibitors, concentration-response, biochemical, absorbance readout, ultra-high-throughput screen actives (AID 540297); assay type: functional
T4 sequence (Q9GZU7 whole entry): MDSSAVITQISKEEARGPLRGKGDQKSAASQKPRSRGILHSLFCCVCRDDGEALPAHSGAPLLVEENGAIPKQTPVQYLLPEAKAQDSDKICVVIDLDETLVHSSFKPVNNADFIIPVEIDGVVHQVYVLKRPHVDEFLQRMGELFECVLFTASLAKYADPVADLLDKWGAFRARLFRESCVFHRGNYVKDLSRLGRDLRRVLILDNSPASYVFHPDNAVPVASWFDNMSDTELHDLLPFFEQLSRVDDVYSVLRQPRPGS

[12] = target: DNA (cytosine-5)-methyltransferase 1 (Homo sapiens, UniProt P26358); experiment: inhibition of DNA methylation by DNMT1 – biochemical, fluorescent molecular beacon, confirmation (AID 602386); assay type: functional
Chain of DNA (cytosine-5)-methyltransferase 1 (P26358 whole entry): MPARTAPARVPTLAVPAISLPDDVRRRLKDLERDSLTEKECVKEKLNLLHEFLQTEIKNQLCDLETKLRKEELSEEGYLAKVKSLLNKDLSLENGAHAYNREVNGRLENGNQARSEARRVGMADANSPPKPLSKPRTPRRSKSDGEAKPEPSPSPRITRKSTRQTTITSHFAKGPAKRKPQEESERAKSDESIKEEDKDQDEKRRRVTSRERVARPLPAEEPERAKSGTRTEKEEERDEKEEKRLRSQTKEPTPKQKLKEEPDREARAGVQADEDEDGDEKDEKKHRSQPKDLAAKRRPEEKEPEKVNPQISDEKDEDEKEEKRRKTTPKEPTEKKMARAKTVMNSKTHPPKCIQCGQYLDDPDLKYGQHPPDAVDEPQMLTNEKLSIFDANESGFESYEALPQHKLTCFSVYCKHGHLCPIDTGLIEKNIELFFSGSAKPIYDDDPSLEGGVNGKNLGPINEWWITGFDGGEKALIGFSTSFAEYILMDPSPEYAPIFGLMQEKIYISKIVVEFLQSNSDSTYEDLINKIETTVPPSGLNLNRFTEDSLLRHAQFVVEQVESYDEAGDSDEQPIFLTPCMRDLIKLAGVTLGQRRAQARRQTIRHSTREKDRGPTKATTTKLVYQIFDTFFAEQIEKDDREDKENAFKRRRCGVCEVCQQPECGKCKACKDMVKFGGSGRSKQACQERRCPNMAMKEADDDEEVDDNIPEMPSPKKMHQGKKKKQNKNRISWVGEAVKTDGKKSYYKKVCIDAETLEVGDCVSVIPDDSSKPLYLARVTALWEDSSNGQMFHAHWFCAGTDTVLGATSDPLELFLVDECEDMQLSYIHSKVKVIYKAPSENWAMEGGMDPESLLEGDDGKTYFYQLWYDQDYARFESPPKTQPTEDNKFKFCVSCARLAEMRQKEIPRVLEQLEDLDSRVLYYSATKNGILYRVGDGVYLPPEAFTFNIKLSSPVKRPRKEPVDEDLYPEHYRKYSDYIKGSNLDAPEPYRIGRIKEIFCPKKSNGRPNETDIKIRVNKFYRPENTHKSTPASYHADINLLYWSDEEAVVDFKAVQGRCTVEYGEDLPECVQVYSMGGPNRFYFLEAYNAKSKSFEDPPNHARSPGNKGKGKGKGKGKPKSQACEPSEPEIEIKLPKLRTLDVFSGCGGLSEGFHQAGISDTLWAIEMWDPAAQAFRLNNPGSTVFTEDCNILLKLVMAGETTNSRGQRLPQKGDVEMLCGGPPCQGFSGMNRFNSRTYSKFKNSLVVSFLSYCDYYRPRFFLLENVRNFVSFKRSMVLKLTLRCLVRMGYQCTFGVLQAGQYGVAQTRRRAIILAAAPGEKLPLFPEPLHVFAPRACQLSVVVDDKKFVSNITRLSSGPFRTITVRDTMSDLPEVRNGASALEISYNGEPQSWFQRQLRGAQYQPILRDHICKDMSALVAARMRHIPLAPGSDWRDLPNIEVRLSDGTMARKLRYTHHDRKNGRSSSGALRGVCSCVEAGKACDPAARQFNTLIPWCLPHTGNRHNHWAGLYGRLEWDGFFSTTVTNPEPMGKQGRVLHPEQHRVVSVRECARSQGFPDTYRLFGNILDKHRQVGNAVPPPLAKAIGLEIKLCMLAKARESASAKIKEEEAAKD

[13] = target: T5, Small ubiquitin-related modifier 1 (Homo sapiens, UniProt P63165); experiment: SUMO1 protein interaction blockers, potency – biochemical, fluorescence polarization, uHTS hits, dose response (AID 624382); assay type: functional; settings: read-out: IC50_Mean
T5 sequence (P63165 whole entry): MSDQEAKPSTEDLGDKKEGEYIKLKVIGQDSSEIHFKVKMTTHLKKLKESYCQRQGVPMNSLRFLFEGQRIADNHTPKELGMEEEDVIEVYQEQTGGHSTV

[14] = target: T5, Small ubiquitin-related modifier 1; experiment: SUMO1 protein-protein binding blockers, potency – biochemical, FRET, dose response (AID 624383); assay type: functional; settings: read-out: IC50_Mean
INS1 = experiment: suppression of NO production in INS-1E cells – cell-based, Griess absorbance, dry powder, dose response (AID 488866); assay type: functional; settings: Rattus norvegicus

T1 sequence (P51452 whole entry): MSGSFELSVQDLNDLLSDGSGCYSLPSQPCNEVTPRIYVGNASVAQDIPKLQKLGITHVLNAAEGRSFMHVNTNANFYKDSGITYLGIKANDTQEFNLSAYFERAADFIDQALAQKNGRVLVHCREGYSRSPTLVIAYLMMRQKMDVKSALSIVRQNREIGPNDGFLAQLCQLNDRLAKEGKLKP

`S=C(NC1CCCCC1)c1cn(CCOc2ccccc2)c2ccccc12` was tested, and the IC50 [1] was > 100 µM (inactive), the IC50 [2] was > 100 µM (inactive) and the IC50 [3] was > 100 µM (inactive). For the same compound, the IC50 [4] was > 100 µM (inactive).
With `Nc1ccc2c3c(cccc13)C(=O)N(c1ccccc1)C2=O` the IC50 (Beta-lactamase [5]) was 12.7 µM (inactive), the IC50 (Beta-lactamase [6]) was 4.41 µM (active) and the AC50 (ORF 73) was 5.56 µM (active). For the same compound, the AC50 (Keap1/Nrf2) was 1.4 µM (active).
For `C=C(C)C(=O)Nc1cccc(C2=NOC3(C2)C[C@H](C(N)=O)N(C(=O)COc2ccc(Cl)cc2)C3)c1` (some centres not stated), the IC50 [7] was 118 µM (active), the IC50 [8] was > 100 µM (inactive) and the IC50 [9] was 7.21 µM (active). For the same compound, the EC50 [10] was 4.23 µM (active), the IC50 [11] was 3.74 µM (active) and the IC50 [12] was 5.52 µM (active). The IC50 [13] was > 66.6 µM (inactive) and the IC50 [14] was 1.94 µM (active).
`COc1ccc(S(=O)(=O)N(C)C[C@@H]2Oc3c(NC(=O)NC4CCCc5ccccc54)cccc3C(=O)N([C@@H](C)CO)C[C@H]2C)cc1` (some centres not stated) was tested, and the AC50 (INS1) was 124 µM (active).
